“And” between values parts separate entries of the source, which are not always exact repeats. Equal values may be shown once.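 Briefly, cells in 96-well plates were exposed to five compound concentrations for 48 h, and endpoints were estimated by linear interpolation. At the GI50, growth is halved. The concentration for full growth arrest is given as TGI.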
How the values were obtained:
Experiment in all cases: DTP human tumour cell line panel, 48 h
U251 CNS = test system: U251 CNS
HOP-18 NSCLC = test system: HOP-18 NSCLC
MDA-MB-231 breast = test system: MDA-MB-231 breast
HOP-62 NSCLC = test system: HOP-62 NSCLC
LXFL 529 NSCLC = test system: LXFL 529 NSCLC
UO-31 renal = test system: UO-31 renal
MOLT-4 leukemia = test system: MOLT-4 leukemia
EKVX NSCLC = test system: EKVX NSCLC
OVCAR-3 ovarian = test system: OVCAR-3 ovarian
HOP-92 NSCLC = test system: HOP-92 NSCLC

CCC/C(=N\NC(=S)N1CCN(c2ccccn2)CC1)c1ccccn1
TGI (U251 CNS): 0.48 µM and 1.38 µM
GI50 (HOP-18 NSCLC): 0.0316 µM
TGI (HOP-18 NSCLC): 0.68 µM and 1.15 µM
TGI (MDA-MB-231 breast): 1.91 µM
GI50 (HOP-62 NSCLC): 0.0603 µM
TGI (HOP-62 NSCLC): 2.92 µM and 1.59 µM
TGI (LXFL 529 NSCLC): 0.0757 µM and 0.241 µM
GI50 (UO-31 renal): 0.0529 µM
TGI (UO-31 renal): 3.42 µM and 1.44 µM
GI50 (MOLT-4 leukemia): 0.00925 µM
TGI (MOLT-4 leukemia): > 10 µM and 1.05 µM
GI50 (EKVX NSCLC): 0.0308 µM
TGI (OVCAR-3 ovarian): 0.615 µM and 1.14 µM

COc1cc(Nc2cnc3cc(C(F)(F)F)ccc3n2)cc(OC)c1OC
TGI (U251 CNS): > 100 µM
TGI (HOP-18 NSCLC): > 100 µM
TGI (HOP-92 NSCLC): > 100 µM
TGI (HOP-62 NSCLC): > 100 µM
TGI (LXFL 529 NSCLC): > 100 µM
TGI (UO-31 renal): > 100 µM
TGI (MOLT-4 leukemia): > 100 µM
TGI (EKVX NSCLC): > 100 µM
TGI (OVCAR-3 ovarian): > 100 µM

O=C(CCN1CCN(c2cccc(Cl)c2)CC1)N1CCc2c([nH]c3ccccc23)C1c1cccnc1 (stereo unspecified)
GI50 (U251 CNS): 9.96 µM
TGI (U251 CNS): 21.5 µM
TGI (HOP-18 NSCLC): 32.5 µM
GI50 (HOP-92 NSCLC): 12.3 µM
TGI (HOP-92 NSCLC): 9.52 µM and 35.7 µM
TGI (HOP-62 NSCLC): 23.9 µM
GI50 (LXFL 529 NSCLC): 6.24 µM
TGI (LXFL 529 NSCLC): 19.6 µM
GI50 (UO-31 renal): 4.7 µM
TGI (UO-31 renal): 16.2 µM
GI50 (MOLT-4 leukemia): 4.65 µM
TGI (MOLT-4 leukemia): 26.6 µM
TGI (EKVX NSCLC): 26.3 µM
GI50 (OVCAR-3 ovarian): 7.67 µM
TGI (OVCAR-3 ovarian): 8.77 µM and 20.1 µM

O=C(Cc1nc2ccccc2s1)C(=O)Nc1ccc(Cl)cc1
TGI (U251 CNS): > 100 µM
TGI (HOP-18 NSCLC): > 100 µM
TGI (HOP-92 NSCLC): > 100 µM
TGI (HOP-62 NSCLC): > 100 µM
TGI (LXFL 529 NSCLC): > 100 µM
TGI (UO-31 renal): > 100 µM
TGI (MOLT-4 leukemia): > 100 µM
TGI (EKVX NSCLC): > 100 µM
TGI (OVCAR-3 ovarian): > 100 µM
